Data published in publication PMC3044687, “The C-Terminal Domain of the Arabinosyltransferase Mycobacterium tuberculosis EmbC Is a Lectin-Like Carbohydrate Binding Module” (PLoS Pathogens, 2011).

Tests used:
Format in all cases: binding
EmbC^CT(N740A) = EmbC^CT(N740A) (Mycobacterium tuberculosis, UniProt P9WNL5, N740A)
EmbC^CT(W868A) = EmbC^CT(W868A) (Mycobacterium tuberculosis, UniProt P9WNL5, W868A)
EmbC^CT(H911A) = EmbC^CT(H911A) (Mycobacterium tuberculosis, UniProt P9WNL5, H911A)
EmbC^CT(W985A) = EmbC^CT(W985A) (Mycobacterium tuberculosis, UniProt P9WNL5, W985A)

Structure (SMILES)	Fmax (EmbC^CT(N740A))	Fmax (EmbC^CT(W868A))	effect of W868A mutation on ligand binding (in words) (EmbC^CT(W868A))	Fmax (EmbC^CT(H911A))	effect of W985A mutation on ligand binding (in words) (EmbC^CT(W985A))	Fmax (EmbC^CT(W985A))
CCCCCCCCO[C@H]1O[C@H](CO[C@H]2O[C@H](CO)[C@@H](O)[C@@H]2O)[C@@H](O)[C@@H]1O [Ara(1→5)Ara-O-C8, α-D-Araf-(1→5)-α-D-Araf-O-(CH2)7CH3]	0.141	0.162	preserved binding	0.170	virtually abrogated binding	
CCCCCCCCO[C@H]1O[C@H](CO[C@H]2O[C@H](CO[C@H]3O[C@H](CO[C@H]4O[C@H](CO[C@H]5O[C@H](CO)[C@@H](O)[C@@H]5O)[C@@H](O)[C@@H]4O)[C@@H](O)[C@@H]3O)[C@@H](O)[C@@H]2O)[C@@H](O)[C@@H]1O [Ara(1→5)4Ara-O-C8, [α-D-Araf-(1→5)]4-α-D-Araf-O-(CH2)7CH3]			completely inhibited		insensitive	0.164
